Key:
APP×PS1 transgenic mice [1] = assay: Cytometric bead array for IL-6 and IL-1β in brain of APP×PS1 mice; assay type: in vivo, mouse; conditions: cortex, 8 month-old Tg mice
Description: (§1) APP×PS1 transgenic mice (B6C3-Tg (APPswe,PSEN1dE9) 85Dbo/Mmjax, purchased from Jackson Laboratories (USA), were bred and genotyped following the vendor's protocols. Borchelt et al., Neuron (1996) 17:1005-13; and Jankowsky et al., Biomol Eng (2001) 17:157-65. The mice had access to food and water ad libitum and were kept on a 12:12 h light-dark cycle. PEI and R8A β 25-35-PEI were dissolved in 100 mM NaH2PO4/138 mM KCl (pH 5) to a final concentration of 400 μM. For intranasal administration, 2.5 μL PEI or R8-A β (25-35)-PEI was given to each nostril of one mouse when they were […] for six days/week until they were 8 months of age. Mice were then tested with a Morris water maze. Treatment were resumed after a 6-week break for the water maze test, and continued until the mice were 12 months of age.
A cytometric bead array (CBA, mouse inflammation kit; BD Biosciences) was used to quantitatively measure cytokine expression levels in the control and treated mouse brain tissue lysates. […] This method quantifies soluble particles, in this case, cytokines, using a fluorescence-based detection mechanism. The beads, coated with the desired cytokine, IL-6 and IL-1B, reacted with the test lysates and standards, to which fluorescence dyes were then added. The assay was performed according to the manufacturer's instructions and analyzed on the FACS Calibur (Becton Dickinson). […]

APP×PS1 transgenic mice [2] = assay: Thioflavin S staining of amyloid plaques in APP×PS1 mice; assay type: in vivo, mouse; conditions: vs PEI
APP×PS1 transgenic mice [3] = assay: Morris water maze in APP×PS1 transgenic mice; assay type: in vivo, mouse; conditions: vs PEI
Description: FIG. 12. R8-Aβ(25-35)-PEI improved memory as measured by the Morris water maze assay. Panel A: Plot of the escape latency period of wild type (WT) and APP×PS1 transgenic (Tg) mice of 8 months of age treated with either PEI or R8-Aβ(25-35) peptide from the age of 4 months to 8 months. […] Panel B: Percentage of time of WT or Tg mice treated as indicated spent in swimming in the target quadrant where the hidden platform used to be. The times of the indicated mice crossing the target quadrant. […] Panel C: The percentage of time of the WT or Tg mice as indicated crossing the target quadrant. Ten mice per group were used in this study. The statistics were performed with two way ANOVA with Fisher's LSD posthoc analysis. N=10/group *<0.05; ***<0.0005; ****<0.0001
as §1
The maze was made of white opaque plastic with a diameter of 120 cm and contained 40 cm high walls. It was filled with milk/water at 25° C. […] The path length and escape latencies were recorded (n=10 per group). Acquisition data, such as time taken to reach the escape platform and path length were analyzed by two-way repeated measures ANOVA. […] The platform was removed from the maze and animals were allowed to swim freely for 90 s and the swimming path was recorded and analyzed.

109QmHtt aggregates = assay: Co-localization of TAMRA-labeled peptide with 109QmHtt aggregates in Neuro2a cells; assay type: cell-based; conditions: Neuro2a cells expressing 109QmHtt
109QmHtt aggregates, sequence (P42858 with tags, fused parts or gaps limits assumed): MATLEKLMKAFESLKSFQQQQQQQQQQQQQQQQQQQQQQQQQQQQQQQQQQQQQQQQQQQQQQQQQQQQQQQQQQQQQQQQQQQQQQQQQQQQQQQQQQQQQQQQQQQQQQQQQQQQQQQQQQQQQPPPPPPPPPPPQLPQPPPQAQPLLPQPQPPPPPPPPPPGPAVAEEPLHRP
Description: FIG. 3. Diagrams showing the co-localization of tested bipartite peptides with the 109QmHtt aggregates. Panel A: Structure of TAMRA-labeled 8R10Q used in this study. Panel B: Epifluorescence micrographs of Neuro2a cells expressing 109QmHtt treated with TAMRA-8R10Q (8R10Q) at various time points. Note the co-localization of 8R10Q and 109QmHttGFP aggregates (GFP) from 8-24 hours (arrows). Scale bar: 10 μm. Panel C: TIRF micrographs of the Neuro2a expressing 109QmHtt treated with water or peptides as indicated at various time points. Note the decrease in aggregate size in 8R10Q and 8R15Q-treated cells. Panel D: Quantitation of the size of individual aggregates in Neuro2a at 8 hours (left) and 24 hours (right) after peptide treatment. […] Panel E: Quantitation of the number of aggregates in 20 Neuro2a cells at 12 hours (left) and 24 hours (right) after peptide treatment. Both the 8R10Q and 8R15Q increased the number of aggregates. Statistics performed with one way ANOVA. **p<0.01; ***p<0.001.
The ability of 8R10Q to bind to the 109QmHtt was examined by determining its co-localization with the 109QmHtt aggregates. The 8R10Q peptide was labeled with carboxytetramethylrhodamine (TAMRA) dye (FIG. 3, panel A), and added into Neuro2a cells expressing 25QHtt or 109QmHtt.

[4] = Solubility of therapeutic peptides; assay type: physicochemical; conditions: DMEM/10% FBS
Description: In this study, the rational design was tested for HD. Several bipartite therapeutic peptides containing 8 consecutive arginines (8R) attached to a stretch of consecutive glutamines (polyQ) were synthesized and their biological activity of decreasing the aggregation propensity of the mHtt protein was investigated. The length of the polyQ of these bipartite peptides was 5 (8R5Q), 10 (8R10Q), 15 (8R15Q) or 20 (8R20Q) (Table 2).

| Substance | level of IL-1β (APP×PS1 transgenic mice [1]) | level of IL-6 (APP×PS1 transgenic mice [1]) | number of plaques (APP×PS1 transgenic mice [2]; cortex and hippocampus, 8 month-old) | percentage of the plaque areas (APP×PS1 transgenic mice [2]; cortex and hippocampus) | total area of amyloid plaques (APP×PS1 transgenic mice [2]; cortex and hippocampus) | average size of individual plaques (APP×PS1 transgenic mice [2]) | escape latency / learning to find hidden platform (APP×PS1 transgenic mice [3]; Tg mice 8 months of age, intranasal) | time spent in the target quadrant (probe test) (APP×PS1 transgenic mice [3]; Tg mice) | learning curve of finding the hidden platform (APP×PS1 transgenic mice [3]; wild-type mice) | co-localization with 109QmHtt aggregates (109QmHtt aggregates) | Solubility (DMEM/10% FBS) [4] |
| --- | --- | --- | --- | --- | --- | --- | --- | --- | --- | --- | --- |
| RRRRRRRRGSNKGAIIGLM-PEI (not fully specified; PEI conjugate) [R8-Aβ(25-35)-PEI] | effectively decreased | effectively decreased | significantly reduced | significantly decreased | correspondingly decreased | failed to reach statistical significance | significant shortening of the latency | increased the time of Tg mice in the target quadrant | no clear difference in the learning curve | – | – |
| TAMRA-NH-(R)8-W-D-(Q)10-CONH2 ({TAMRA}-RRRRRRRRWDQQQQQQQQQQ-NH2) [TAMRA-8R10Q] | – | – | – | – | – | – | – | – | – | co-localized with the aggregates | Soluble |

Reference: patent US12590130B2, “Bipartite molecules and uses thereof in treating diseases associated with abnormal protein aggregates” (ACADEMIA SINICA, priority 2014, dated 2026)
